These results are taken from patent US9517223B2, “Methods to treat neurodegenerative diseases” (Children's Medical Center Corporation, priority 2012, dated 2016).

Molecules are shown by their SMILES.

For series [1] the following is noted: mice, 10 mg/kg IP injection for several weeks; cited from earlier work.
Series [2] deals with ALS patient-derived motor neurons (39b). The experiment in a line: Extracellular MEA recording of spontaneous firing, SOD1 A4V ALS motor neurons. To be noted: retigabine 10 μM; two additional MEAs from separate differentiations.

Regarding `CCOC(=O)Nc1ccc(NCc2ccc(F)cc2)cc1N` [Retigabine], the side effects result in series [1] was “without apparent side effects”. Also, in series [2], the “percentage of active neurons blocked (spontaneous firing)” value was 100%.
